Measured values from patent publication US9512139B2, “Conformationally constrained, fully synthetic macrocyclic compounds” (POLYPHOR AG, priority 2009, dated 2016).

Target: T1, Prostaglandin F (FP) Receptor (Homo sapiens, UniProt P43088)
T1 construct: host or cells: Ca2+ optimized hematopoietic cell lines (rat)
Experiment: Ca2+ assay (FLIPR) for the GPCR prostaglandin F (FP) receptor, agonist and antagonist mode
Type: cell-based
Procedure: Biological and Pharmacological Methods 1. Ca^2+ Assays for the GPCRs Motilin Receptor, Prostaglandin F (FP) Receptor, 5-hydroxytryptamine 2B (5-HT2B) Receptor, and Purinoreceptor P2Y1
Assays were performed using on a FLIPR^TETRA fluorometric imaging plate reader (Molecular Devices) with ScreenWorks Version 2 (Molecular Devices) as device operating and data analysis software.
Dose dependent agonist and antagonist activities were determined. Percentage activation and percentage inhibition values were determined.
Percentage activation was determined upon initial addition of the sample compounds followed by 10 minutes incubation at 25° C. Following compound incubation, reference agonists were added at EC80 to determine percentage inhibition.
Reference agonists were purchased from reputable commercial vendors and prepared according to each ligand's specifications. All handling of ligands were done to ensure proper control throughout the experiments.
Example compounds were weighed on a Microbalance (Mettler MX5) and dissolved in 100% DMSO to a final concentration of 2.5 mM and subsequently diluted into the assay buffer.
The Assay buffer was a supplemented HBSS (Hank's Balanced Salt Solution). HBSS was supplemented with 20 mM HEPES (4-(2-hydroxyethyl)-piperazin-1-ethansulfonic acid) and 2.5 mM Probenecid (Sigma P8761).
GPCR assays were performed using Ca^2+ optimized hematopoietic cell lines (rat) with cultures never exceeding 90% confluency. Cells were harvested and seeded (from cultures at less than 90% confluency) at 50000 cells/well for a 96-well plate (12500 cells/well for 384). After seeding, the assay plates were incubated for forty-five (45) minutes at room temperature. After room temperature incubation, the assay plates were incubated at 37° C. 5% CO2 for 24 hours prior to assaying.
All GPCR assays were performed using Fluo-8 Ca^2+ dye. Ca^2+ dye was prepared at 1× dye concentration in GPCR assay buffer. After 24 hours of incubation, cells were washed with GPCR assay buffer, and then Ca^2+-dye (100 μL/well) was added.
The plates were incubated for 90 minutes at 30° C. 5% CO2 prior to FLIPR assay.
Compound plates were prepared to add 50 μL/well during the agonist assay mode. During the FLIPR assay, 50 μL/well from the compound plate was diluted 3-fold into the existing 100 μL/well from the dye loading step. Therefore all compounds were prepared as 3× the final concentration desired in the assay.
After completion of the first single addition assay run, assay plate was removed from the FLIPR Tetra and placed at 25° C. for seven (7) minutes before antagonist assay.
Using the EC80 values determined during the agonist assay, all pre-incubated sample compound and reference antagonist (if applicable) wells were stimulated at the EC80 of the reference agonist. As reference ligands for the first three assays their obvious natural ligands motilin, prostaglandin F2α, and serotonin (5-HT, 5-Hydroxytryptamine) were used; and for the P2Y1 assay 2MeSATP (2-methyl-thio-adeno-sine 5′-triphosphate, i.e. (2R,3S,4R)-5-(6-amino-2-methylsulfanyl-purin-9-yl)-3,4-dihydroxy-tetrahydrofuran-2-yl]methyl (hydroxy-phosphonooxy-phosphoryl)hydrogen phosphate) was applied.
After the addition of the reference agonist fluorescence was monitored for 180 sec using FLIPR Tetra.
Data Analysis and Results:
From the FLIPR data, with negative control correction enabled, the maximum statistic for each well was exported and percentage activation relative to Emax control was calculated.

T1 sequence (P43088 whole entry): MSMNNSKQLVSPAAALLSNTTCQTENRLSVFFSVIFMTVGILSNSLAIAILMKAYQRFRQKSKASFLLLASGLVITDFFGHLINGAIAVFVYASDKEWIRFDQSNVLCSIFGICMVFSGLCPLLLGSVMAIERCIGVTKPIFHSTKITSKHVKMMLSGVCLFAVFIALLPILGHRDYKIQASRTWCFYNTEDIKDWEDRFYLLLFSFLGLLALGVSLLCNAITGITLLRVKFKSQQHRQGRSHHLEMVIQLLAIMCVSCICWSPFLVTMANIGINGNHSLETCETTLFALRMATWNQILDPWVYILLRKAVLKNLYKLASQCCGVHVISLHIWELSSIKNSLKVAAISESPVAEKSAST

IC50	inhibition at 10 µM	SMILES
–	80%	CN1CCC[C@H](NC(=O)Cc2ccc3ccccc3c2)C(=O)N2C[C@@H](NC(=O)Nc3ccc(N(C)C)cc3)C[C@H]2COc2cccc(c2)C1=O [Ex. 538, N-[(4S,6S,10S)-6-({[4-(dimethylamino)anilino]carbonyl}amino)-14-methyl-9,15-dioxo-2-oxa-8,14-diazatricyclo[14.3.1.0^4,8]icosa-1(20),16,18-trien-10-yl]-2-(2-naphthyl)acetamide]
–	62%	CN1CCC[C@H](NC(=O)Cc2cccc3ccccc23)C(=O)N2C[C@@H](NC(=O)C(c3ccccc3)c3ccccc3)C[C@H]2COc2cccc(c2)C1=O [Ex. 549, N-[(4S,6S,10S)-14-methyl-10-{[2-(1-naphthyl)acetyl]amino}-9,15-dioxo-2-oxa-8,14-diazatricyclo[14.3.1.0^4,8]icosa-1(20),16,18-trien-6-yl]-2,2-diphenylacetamide]
–	43%	CN1CCC[C@H](NC(=O)Cc2ccc3ccccc3c2)C(=O)N2C[C@@H](NC(=O)Cc3ccc4cccnc4c3)C[C@H]2COc2cccc(c2)C1=O [Ex. 540, N-[(4S,6S,10S)-14-methyl-9,15-dioxo-6-{[2-(7-quinolinyl)acetyl]amino}-2-oxa-8,14-diazatricyclo[14.3.1.0^4,8]icosa-1(20),16,18-trien-10-yl]-2-(2-naphthyl)acetamide]
–	75%	CN1CCC[C@H](NC(=O)Cc2ccc3ccccc3c2)C(=O)N2C[C@@H](NC(=O)Nc3cccc(F)c3)C[C@H]2COc2cccc(c2)C1=O [Ex. 537, N-[(4S,6S,10S)-6-{[(3-fluoroanilino)carbonyl]amino}-14-methyl-9,15-dioxo-2-oxa-8,14-diazatricyclo[14.3.1.0^4,8]icosa-1(20),16,18-trien-10-yl]-2-(2-naphthyl)acetamide]
0.18 µM	99%	CN1CCC[C@H](NC(=O)Cc2ccc(-c3ccccc3)cc2)C(=O)N2C[C@@H](NC(=O)Nc3cccc(N(C)C)c3)C[C@H]2COc2cccc(c2)C1=O [Ex. 526, 2-[1,1′-biphenyl]-4-yl-N-[(4S,6S,10S)-6-({[3-(dimethylamino)anilino]carbonyl}amino)-14-methyl-9,15-dioxo-2-oxa-8,14-diazatricyclo[14.3.1.0^4,8]icosa-1(20),16,18-trien-10-yl]acetamide]
–	69%	CCCCCCCCCC(=O)N[C@H]1CCCN(C)C(=O)c2cccc(c2)OC[C@@H]2C[C@H](NC(=O)C(c3ccccc3)c3ccccc3)CN2C1=O [Ex. 548, N-[(4S,6S,10S)-6-[(2,2-diphenylacetyl)amino]-14-methyl-9,15-dioxo-2-oxa-8,14-diazatricyclo[14.3.1.0^4,8]icosa-1(20),16,18-trien-10-yl]decanamide]
–	37%	CN1CCC[C@H](NC(=O)Cc2ccc(-c3ccccc3)cc2)C(=O)N2C[C@@H](NC(=O)C(c3ccccc3)c3ccccc3)C[C@H]2COc2cccc(c2)C1=O [Ex. 546, N-[(4S,6S,10S)-10-[(2-[1,1′-biphenyl]-4-ylacetyl)amino]-14-methyl-9,15-dioxo-2-oxa-8,14-diazatricyclo[14.3.1.0^4,8]icosa-1(20),16,18-trien-6-yl]-2,2-diphenylacetamide]
–	65%	CN1CCC[C@H](NC(=O)Cc2ccc3ccccc3c2)C(=O)N2C[C@@H](NC(=O)Cc3cccc(Oc4ccccc4)c3)C[C@H]2COc2cccc(c2)C1=O [Ex. 541, N-[(4S,6S,10S)-14-methyl-9,15-dioxo-6-{[2-(3-phenoxyphenyl)acetyl]amino}-2-oxa-8,14-diazatricyclo[14.3.1.0^4,8]icosa-1(20),16,18-trien-10-yl]-2-(2-naphthyl)acetamide]

Further lines, the compound ahead of its results:

SMILES	IC50	inhibition at 10 µM
CN1CCC[C@H](NC(=O)Cc2ccc(-c3ccccc3)cc2)C(=O)N2C[C@@H](NC(=O)Cc3ccc4ccccc4c3)C[C@H]2COc2cccc(c2)C1=O [Ex. 522, 2-[1,1′-biphenyl]-4-yl-N-[(4S,6S,10S)-14-methyl-6-{[2-(2-naphthyl)acetyl]amino}-9,15-dioxo-2-oxa-8,14-diazatricyclo[14.3.1.0^4,8]icosa-1(20),16,18-trien-10-yl]acetamide]	0.35 µM	95%
CCCCCC/C=C/CC(=O)N[C@H]1CCCN(C)C(=O)c2cccc(c2)OC[C@@H]2C[C@H](NC(=O)Cc3ccc4ccccc4c3)CN2C1=O [Ex. 518, (E)-N-[(4S,6S,10S)-14-methyl-6-{[2-(2-naphthyl)acetyl]amino}-9,15-dioxo-2-oxa-8,14-diazatricyclo[14.3.1.0^4,8]icosa-1(20),16,18-trien-10-yl]-3-decenamide]	0.49 µM	80%
CCCCCCCCCC(=O)N[C@H]1CCCNC(=O)c2cccc(c2)OC[C@@H]2C[C@H](NC(=O)Cc3ccc4ccccc4c3)CN2C1=O [Ex. 391, N-[(4S,6S,10S)-6-{[2-(2-naphthyl)acetyl]amino}-9,15-dioxo-2-oxa-8,14-diazatricyclo[14.3.1.0^4,8]icosa-1(20),16,18-trien-10-yl]decanamide]	0.25 µM	93%
CN1CCC[C@H](NC(=O)CCCCCc2ccccc2)C(=O)N2C[C@@H](NC(=O)CCCCCOCc3ccccc3)C[C@H]2COc2cccc(c2)C1=O [Ex. 524, 6-(benzyloxy)-N-[(4S,6S,10S)-14-methyl-9,15-dioxo-10-[(6-phenylhexanoyl)amino]-2-oxa-8,14-diazatricyclo[14.3.1.0^4,8]icosa-1(20),16,18-trien-6-yl]hexanamide]	1.7 µM	85%
CCCCCCCCCC(=O)N[C@H]1CCCN(C)C(=O)c2cccc(c2)OC[C@@H]2C[C@H](NC(=O)CCc3ccccc3)CN2C1=O [Ex. 509, N-[(4S,6S,10S)-14-methyl-9,15-dioxo-6-[(3-phenylpropanoyl)amino]-2-oxa-8,14-diazatricyclo[14.3.1.0^4,8]icosa-1(20),16,18-trien-10-yl]decanamide]	2.1 µM	54%
CN1CCC[C@H](NC(=O)CC(c2ccccc2)c2ccccc2)C(=O)N2C[C@@H](NC(=O)Cc3ccc4ccccc4c3)C[C@H]2COc2cccc(c2)C1=O [Ex. 523, N-[(4S,6S,10S)-14-methyl-6-{[2-(2-naphthyl)acetyl]amino}-9,15-dioxo-2-oxa-8,14-diazatricyclo[14.3.1.0^4,8]icosa-1(20),16,18-trien-10-yl]-3,3-diphenylpropanamide]	0.86 µM	92%
CCCCCCCCCC(=O)N[C@H]1CCCN(C)C(=O)c2cccc(c2)OC[C@@H]2C[C@H](NC(=O)Cc3cccc(Oc4ccccc4)c3)CN2C1=O [Ex. 515, N-[(4S,6S,10S)-14-methyl-9,15-dioxo-6-{[2-(3-phenoxyphenyl)acetyl]amino}-2-oxa-8,14-diazatricyclo[14.3.1.0^4,8]icosa-1(20),16,18-trien-10-yl]decanamide]	5.1 µM	32%
CCCCCCCCCC(=O)N[C@H]1CCCN(C)C(=O)c2cccc(c2)OC[C@@H]2C[C@H](NC(=O)c3cccc(N4CCOCC4)c3)CN2C1=O [Ex. 510, N-[(4S,6S,10S)-14-methyl-6-[(3-morpholinobenzoyl)amino]-9,15-dioxo-2-oxa-8,14-diazatricyclo[14.3.1.0^4,8]icosa-1(20),16,18-trien-10-yl]decanamide]	1.5 µM	42%
O=C(Cc1ccc2ccccc2c1)N[C@H]1C[C@H]2COc3cccc(c3)C(=O)NCCC[C@H](NC(=O)OCc3ccccc3)C(=O)N2C1 [Ex. 388, benzyl N-[(4S,6S,10S)-6-{[2-(2-naphthyl)acetyl]amino}-9,15-dioxo-2-oxa-8,14-diazatricyclo[14.3.1.0^4,8]icosa-1(20),16,18-trien-10-yl]carbamate]	0.32 µM	99%
CN1CCC[C@H](NC(=O)Cc2ccc3ccccc3c2)C(=O)N2C[C@@H](NC(=O)Cc3ccc4ccccc4c3)C[C@H]2COc2cccc(c2)C1=O [Ex. 186, N-[(4S,6S,10S)-14-methyl-10-{[2-(2-naphthyl)acetyl]amino}-9,15-dioxo-2-oxa-8,14-diazatricyclo[14.3.1.0^4,8]icosa-1(20),16,18-trien-6-yl]-2-(2-naphthyl)acetamide]	1.2 µM	53%
